# According to patent US20260297081A1, “COMPOUNDS AND METHODS OF TREATING CANCERS” (Cullgen Inc., priority 2023, published 2026):
# Tests used:
# Assay type in all cases: cell-based
# [1] = tested on: MCF7 cells; assay: Anti-proliferation (viability) of MCF7 cells (Table 7, FIG. 2B); settings: Homo sapiens, MCF7, MCF7 cells, 3-6 days, 10-point serial dilution; read-out: GI IC50 in MCF-7
# [2] = tested on: Calu-1 cells; assay: Anti-proliferation (viability) of NSCLC Calu-1 cells, 3 days (Table 7, FIG. 2B); settings: Homo sapiens, 72 h; Calu-1 cells, 3 days, 10-point serial dilution; read-out: GI IC50 in Calu-1
# Procedure, shortened: (§1)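 Seed cells, add compound in ten serially diluted concentrations, then incubate (Calu-1: 3 days; T47D: 6 days) before measuring viability.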
# [3] = target: CDK4 (Homo sapiens, UniProt P11802+Q16531); assay: CDK4 percentage degradation in Calu-1 cells (Table 6); set-up: Cells that express cyclin D1-3 and CDK4/6 proteins were treated with heterobifunctional compounds; endogenous in cells; host or cells: Calu-1; settings: 16 hours; for inhibition at 0.04 µM: 40 nM; for inhibition at 0.2 µM: 200 nM
# Chain of CDK4 (P11802 2-303 limits assumed): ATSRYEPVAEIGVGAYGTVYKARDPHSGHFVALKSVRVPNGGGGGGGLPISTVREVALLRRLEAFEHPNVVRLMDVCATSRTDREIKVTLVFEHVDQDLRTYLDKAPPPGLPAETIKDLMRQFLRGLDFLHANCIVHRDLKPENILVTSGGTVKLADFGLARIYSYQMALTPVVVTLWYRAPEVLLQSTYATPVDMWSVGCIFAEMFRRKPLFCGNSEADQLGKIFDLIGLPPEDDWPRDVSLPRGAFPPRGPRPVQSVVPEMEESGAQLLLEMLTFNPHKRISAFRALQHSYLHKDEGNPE
# Chain of CDK4 (P24385 whole entry partner): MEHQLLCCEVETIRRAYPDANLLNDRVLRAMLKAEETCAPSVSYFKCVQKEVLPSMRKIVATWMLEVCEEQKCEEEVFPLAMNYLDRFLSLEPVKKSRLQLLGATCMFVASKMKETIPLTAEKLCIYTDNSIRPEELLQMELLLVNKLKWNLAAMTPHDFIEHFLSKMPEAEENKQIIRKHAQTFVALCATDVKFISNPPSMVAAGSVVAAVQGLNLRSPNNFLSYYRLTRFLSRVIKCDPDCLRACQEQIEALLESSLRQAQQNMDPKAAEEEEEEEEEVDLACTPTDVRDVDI
# Chain of CDK4 (Q16531 2-1140 limits assumed): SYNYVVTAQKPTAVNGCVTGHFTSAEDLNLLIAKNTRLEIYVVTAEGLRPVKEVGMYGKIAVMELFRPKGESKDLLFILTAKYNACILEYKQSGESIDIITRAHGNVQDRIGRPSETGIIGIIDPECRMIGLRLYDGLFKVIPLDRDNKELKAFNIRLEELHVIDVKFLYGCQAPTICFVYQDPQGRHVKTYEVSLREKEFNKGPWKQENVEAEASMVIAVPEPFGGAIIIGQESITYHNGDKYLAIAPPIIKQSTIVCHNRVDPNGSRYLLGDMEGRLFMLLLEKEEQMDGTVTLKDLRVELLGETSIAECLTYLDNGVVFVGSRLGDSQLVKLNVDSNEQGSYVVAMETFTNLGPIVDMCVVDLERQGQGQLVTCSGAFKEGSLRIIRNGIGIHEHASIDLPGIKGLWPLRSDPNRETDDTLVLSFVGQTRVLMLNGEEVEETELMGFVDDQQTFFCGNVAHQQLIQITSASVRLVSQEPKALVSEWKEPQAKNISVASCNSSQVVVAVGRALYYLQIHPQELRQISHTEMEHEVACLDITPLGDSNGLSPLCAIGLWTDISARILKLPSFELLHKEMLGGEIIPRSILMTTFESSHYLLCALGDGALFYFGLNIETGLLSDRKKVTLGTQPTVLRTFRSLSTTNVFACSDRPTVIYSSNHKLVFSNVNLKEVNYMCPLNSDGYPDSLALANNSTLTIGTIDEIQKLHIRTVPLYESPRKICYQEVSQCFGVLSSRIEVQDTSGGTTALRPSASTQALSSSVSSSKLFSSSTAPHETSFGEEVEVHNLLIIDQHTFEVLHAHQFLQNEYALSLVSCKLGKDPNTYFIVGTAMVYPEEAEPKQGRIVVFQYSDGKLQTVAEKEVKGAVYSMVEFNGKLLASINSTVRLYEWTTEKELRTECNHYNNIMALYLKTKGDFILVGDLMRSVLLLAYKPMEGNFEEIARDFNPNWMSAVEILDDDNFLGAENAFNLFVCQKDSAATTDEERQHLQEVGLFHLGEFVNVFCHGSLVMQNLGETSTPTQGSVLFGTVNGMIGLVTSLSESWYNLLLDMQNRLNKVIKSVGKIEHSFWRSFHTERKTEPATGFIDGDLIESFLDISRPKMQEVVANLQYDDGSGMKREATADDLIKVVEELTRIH
# Procedure, shortened: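 Percentage degradation of Cyclin D1 and CDK4 derived from densitometry of ECL Western blots on lysates of Calu-1 cells. Treatment was 16 h with compound at either 40 nM or 200 nM.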
# [4] = tested on: T47D cells; assay: Anti-proliferation (viability) of ER+ breast cancer T47D cells, 6 days (Table 7, FIG. 2B); settings: Homo sapiens, 144 h; T47D cells, 6 days, 10-point serial dilution; read-out: GI IC50 in T47D
# Procedure, shortened: as §1
SMILES,IC50 [1] [nM],IC50 [2] [nM],inhibition at 0.04 µM [3] [%],inhibition at 0.2 µM [3] [%],IC50 [4] [nM]
"CNc1ccc(C(=O)Nc2ccc3ncn(C)c3n2)c(NCCCCCNC(=O)CN2CCN(c3ccc(Nc4ncc5c(C)c(C(C)=O)c(=O)n(C6CCCC6)c5n4)nc3)CC2)n1 [CPD-38, 2-((5-(2-(4-(6-((6-Acetyl-8-cyclopentyl-5-methyl-7-oxo-7,8-dihydropyrido[2,3-d]pyrimidin-2-yl)amino)pyridin-3-yl)piperazin-1-yl)acetamido)pentyl)amino)-N-(3-methyl-3H-imidazo[4,5-b]pyridin-5-yl)-6-(methylamino)nicotinamide]",> 100,≤ 10,50 to 80,> 80,50 to 100
"CNc1ccc(C(=O)Nc2cc(C)n(C)n2)c(NCCCCCNC(=O)CN2CCN(c3ccc(Nc4ncc5c(C)c(C(C)=O)c(=O)n(C6CCCC6)c5n4)nc3)CC2)n1 [CPD-50, 2-((5-(2-(4-(6-((6-acetyl-8-cyclopentyl-5-methyl-7-oxo-7,8-dihydropyrido[2,3-d]pyrimidin-2-yl)amino)pyridin-3-yl)piperazin-1-yl)acetamido)pentyl)amino)-N-(1,5-dimethyl-1H-pyrazol-3-yl)-6-(methylamino)nicotinamide]",< 50,≤ 10,50 to 80,50 to 80,50 to 100
"CNc1ccc(C(=O)Nc2cccc(C3CC3)n2)c(NCCCCCNC(=O)CN2CCN(c3ccc(Nc4ncc5c(C)c(C(C)=O)c(=O)n(C6CCCC6)c5n4)nc3)CC2)n1 [CPD-51, 2-((5-(2-(4-(6-((6-Acetyl-8-cyclopentyl-5-methyl-7-oxo-7,8-dihydropyrido[2,3-d]pyrimidin-2-yl)amino)pyridin-3-yl)piperazin-1-yl)acetamido)pentyl)amino)-N-(6-cyclopropylpyridin-2-yl)-6-(methylamino)nicotinamide]",50 to 100,≤ 10,50 to 80,50 to 80,50 to 100
"CCc1ccc(C(=O)Nc2ccc(N(C)C)nn2)c(NCCCCCNC(=O)CN2CCN(c3ccc(Nc4ncc5c(C)c(C(C)=O)c(=O)n(C6CCCC6)c5n4)nc3)CC2)n1 [CPD-54, 2-((5-(2-(4-(6-((6-Acetyl-8-cyclopentyl-5-methyl-7-oxo-7,8-dihydropyrido[2,3-d]pyrimidin-2-yl)amino)pyridin-3-yl)piperazin-1-yl)acetamido)pentyl)amino)-N-(6-(dimethylamino)pyridazin-3-yl)-6-ethylnicotinamide]",< 50,≤ 10,50 to 80,50 to 80,50 to 100
"CNc1ccc(C(=O)Nc2ccc(N(C)C)nn2)c(NC2CC3(C2)CN(C(=O)CCN2CCN(c4ccc(Nc5ncc6c(C)c(C(C)=O)c(=O)n(C7CCCC7)c6n5)nc4)CC2)C3)n1 [CPD-62, 2-((2-(3-(4-(6-((6-Acetyl-8-cyclopentyl-5-methyl-7-oxo-7,8-dihydropyrido[2,3-d]pyrimidin-2-yl)amino)pyridin-3-yl)piperazin-1-yl)propanoyl)-2-azaspiro[3.3]heptan-6-yl)amino)-N-(6-(dimethylamino)pyridazin-3-yl)-6-(methylamino)nicotinamide]",< 50,≤ 10,> 80,> 80,≤ 50
"CC(=O)c1c(C)c2cnc(Nc3ccc(N4CCN(CC(=O)NCCCCCNc5nc(C(C)C)ccc5C(=O)Nc5ccc(N(C)C)nn5)CC4)cn3)nc2n(C2CCCC2)c1=O [CPD-63, 2-((5-(2-(4-(6-((6-Acetyl-8-cyclopentyl-5-methyl-7-oxo-7,8-dihydropyrido[2,3-d]pyrimidin-2-yl)amino)pyridin-3-yl)piperazin-1-yl)acetamido)pentyl)amino)-N-(6-(dimethylamino)pyridazin-3-yl)-6-isopropylnicotinamide]",< 50,≤ 10,> 80,> 80,≤ 50
"[2H]C([2H])([2H])Nc1ccc(C(=O)Nc2ccc(N(C)C)nn2)c(NCCCCCNC(=O)CN2CCN(c3ccc(Nc4ncc5c(C)c(C(C)=O)c(=O)n(C6CCCC6)c5n4)nc3)CC2)n1 [CPD-66, 2-((5-(2-(4-(6-((6-Acetyl-8-cyclopentyl-5-methyl-7-oxo-7,8-dihydropyrido[2,3-d]pyrimidin-2-yl)amino)pyridin-3-yl)piperazin-1-yl)acetamido)pentyl)amino)-N-(6-(dimethylamino)pyridazin-3-yl)-6-((methyl-d3)amino)nicotinamide]",> 100,≤ 10,50 to 80,50 to 80,50 to 100
CNc1ccc(C(=O)Nc2ccc(N(C)C)nn2)c(NC[C@H]2CC[C@H](NC(=O)CN3CCN(c4ccc(Nc5ncc6c(C)c(C(C)=O)c(=O)n(C7CCCC7)c6n5)nc4)CC3)CC2)n1 [CPD-73],50 to 100,10 to 50,50 to 80,50 to 80,50 to 100
"CNc1ccc(C(=O)Nc2ccc(N(C)C)nn2)c(NC2CC(CNC(=O)CN3CCN(c4ccc(Nc5ncc6c(C)c(C(C)=O)c(=O)n(C7CCCC7)c6n5)nc4)CC3)C2)n1 (stereo not shown) [CPD-79, 2-((3-((2-(4-(6-((6-Acetyl-8-cyclopentyl-5-methyl-7-oxo-7,8-dihydropyrido[2,3-d]pyrimidin-2-yl)amino)pyridin-3-yl)piperazin-1-yl)acetamido)methyl)cyclobutyl)amino)-N-(6-(dimethylamino)pyridazin-3-yl)-6-(methylamino)nicotinamide]",< 50,≤ 10,50 to 80,50 to 80,≤ 50
"CNc1ccc(C(=O)Nc2ccc(N(C)C)nn2)c(NC2CC3(C2)CC(OCC(=O)N2CCN(c4ccc(Nc5ncc6c(C)c(C(C)=O)c(=O)n(C7CCCC7)c6n5)nc4)CC2)C3)n1 (stereo not shown) [CPD-84, 2-((6-(2-(4-(6-((6-Acetyl-8-cyclopentyl-5-methyl-7-oxo-7,8-dihydropyrido[2,3-d]pyrimidin-2-yl)amino)pyridin-3-yl)piperazin-1-yl)-2-oxoethoxy)spiro[3.3]heptan-2-yl)amino)-N-(6-(dimethylamino)pyridazin-3-yl)-6-(methylamino)nicotinamide]",> 100,10 to 50,< 30,< 30,50 to 100
"CNc1ccc(C(=O)Nc2ccc(N(C)C)nn2)c(NC2CC(CC(=O)NCCN3CCN(c4ccc(Nc5ncc6c(C)c(C(C)=O)c(=O)n(C7CCCC7)c6n5)nc4)CC3)C2)n1 (stereo not shown) [CPD-101, 2-((3-(2-((2-(4-(6-((6-Acetyl-8-cyclopentyl-5-methyl-7-oxo-7,8-dihydropyrido[2,3-d]pyrimidin-2-yl)amino)pyridin-3-yl)piperazin-1-yl)ethyl)amino)-2-oxoethyl)cyclobutyl)amino)-N-(6-(dimethylamino)pyridazin-3-yl)-6-(methylamino)nicotinamide]",< 50,≤ 10,50 to 80,> 80,50 to 100
"CNc1ccc(C(=O)Nc2cccc(C3CC3)n2)c(NC2CC3(C2)CN(C(=O)CCN2CCN(c4ccc(Nc5ncc6c(C)c(C(C)=O)c(=O)n(C7CCCC7)c6n5)nc4)CC2)C3)n1 [CPD-103, 2-((2-(3-(4-(6-((6-Acetyl-8-cyclopentyl-5-methyl-7-oxo-7,8-dihydropyrido[2,3-d]pyrimidin-2-yl)amino)pyridin-3-yl)piperazin-1-yl)propanoyl)-2-azaspiro[3.3]heptan-6-yl)amino)-N-(6-cyclopropylpyridin-2-yl)-6-(methylamino)nicotinamide]",> 100,≤ 10,> 80,> 80,50 to 100
"CNc1ccc(C(=O)Nc2ccc(N(C)C)nn2)c(NC2CC3(C2)CN(C(=O)C2(CN4CCN(c5ccc(Nc6ncc7c(C)c(C(C)=O)c(=O)n(C8CCCC8)c7n6)nc5)CC4)CC2)C3)n1 [CPD-115, 2-((2-(1-((4-(6-((6-Acetyl-8-cyclopentyl-5-methyl-7-oxo-7,8-dihydropyrido[2,3-d]pyrimidin-2-yl)amino)pyridin-3-yl)piperazin-1-yl)methyl)cyclopropane-1-carbonyl)-2-azaspiro[3.3]heptan-6-yl)amino)-N-(6-(dimethylamino)pyridazin-3-yl)-6-(methylamino)nicotinamide]",> 100,≤ 10,50 to 80,50 to 80,≤ 50
"CNc1ccc(C(=O)Nc2cc(C)n(C)n2)c(NC2CC3(C2)CN(C(=O)CCN2CCN(c4ccc(Nc5ncc6c(C)c(C(C)=O)c(=O)n(C7CCCC7)c6n5)nc4)CC2)C3)n1 [CPD-129, 2-((2-(3-(4-(6-((6-Acetyl-8-cyclopentyl-5-methyl-7-oxo-7,8-dihydropyrido[2,3-d]pyrimidin-2-yl)amino)pyridin-3-yl)piperazin-1-yl)propanoyl)-2-azaspiro[3.3]heptan-6-yl)amino)-N-(1,5-dimethyl-1H-pyrazol-3-yl)-6-(methylamino)nicotinamide]",> 100,≤ 10,50 to 80,50 to 80,50 to 100
